Reference: US20260007692A1, “BIORESORBABLE ORGANIC BIOELECTRONICS” (priority 2023, published 2026)

Assays:
[1] = Oxidation / redox potential of trimers and EDOT monomer; format: physicochemical
[2] = tested on: HLF-1; assay: MTT cell viability assay (limiting-dilution toxicity); format: cell-based, human; details: 1 day exposure, up to 1 mg mL^−1
Procedure: The MTT cell viability assay was conducted to determine in vitro toxicity of A5, ETE-S and ETE-PC. Briefly, HLF-1 (2×10^4 cells well-1) were plated in a 96-well flat-bottom microplate and grown for 24 h. Cells were treated with A5, ETE-S, or ETE-PC (0-1000 μg ml^−1) for 24 h. Post-treatment, 200 μL of MTT (0.5 mg mL^−1) was added into each well and incubated at 37° C. for 4 h. After incubation, 200 μL of isopropanol was added to dissolve formazan crystals. The optical density of formazan solution, as a measure of live cells, was obtained using a microplate reader at 570 nm (Spark Cyto, Tecan). The formazan signal (live cell count) was normalized to the control samples not exposed to A5 or ETE-Rs. 3 biological and 3 technical replicates were used for each setting. Each well contained up to 200 μg of our compound (1 mg mL^−1, 200 μL) which can be compared to a typical in vivo injection of 400 ng (40 mg mL^−1, 10 nL).

[3] = target: T1, horseradish peroxidase (HRP) (Armoracia rusticana, UniProt P00433); assay: Enzymatic polymerization of ETE-PC with HRP and H2O2; format: biochemical; details: ETE-PC 500 μg/ml, HRP 5 U/ml
T1 construct: purchased Merck, Sigma Aldrich P8375-25KU
T1 sequence (P00433 31-338 limits assumed): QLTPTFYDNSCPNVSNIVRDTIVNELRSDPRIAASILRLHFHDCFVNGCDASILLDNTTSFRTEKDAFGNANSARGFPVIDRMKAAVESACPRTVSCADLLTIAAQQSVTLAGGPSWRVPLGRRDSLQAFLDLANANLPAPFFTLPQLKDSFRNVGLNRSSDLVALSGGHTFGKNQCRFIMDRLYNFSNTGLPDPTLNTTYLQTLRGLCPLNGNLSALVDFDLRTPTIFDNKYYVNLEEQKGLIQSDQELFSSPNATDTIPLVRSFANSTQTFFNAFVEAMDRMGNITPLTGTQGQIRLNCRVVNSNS
Procedure: A solution of ETE-PC (500 μg/ml) was prepared in DPBS (Thermo Fischer, Gibco, Cat no. 14190-250) and mixed with different concentrations of hydrogen peroxide (H2O2) (0.001-0.01%) and horseradish peroxidase (HRP) (Merck, Sigma Aldrich, P8375-25KU) (5 U/ml in DPBS) was added. The polymerization was examined by the change of colour of the ETE-PC solution from slightly yellow to black and taking absorbance at 350 nm and 780 nm to detect polymerized and unpolymerized ETE-PC. The absorbance maxima of polymerized and unpolymerized ETE-PC were determined by a wavelength scan using UV-Vis spectrophotometry by Spark Cyto (Tecan) multi-mode plate reader.

[4] = tested on: normal human lung fibroblast (HLF-1) cells; assay: Calcein-AM cytotoxicity assessment in normal lung fibroblast; format: cell-based; details: 24 hrs
Procedure: Study of the in vitro toxicity of ETE-PC in normal human lung fibroblast (HLF-1) cells. Briefly, HLF-1 cells were seeded in 96 well plate at a density of 2×10^4 cell per well and grown for 24 hrs. Later cells were treated with various concentrations of ETE-PC (5-1000 μg/ml) for 24 hrs. Post treatment, 200 μl live cell staining dye calcein-AM (Thermo Fisher, Invitrogen, Cat no. C3100MP) (2 μM in PR free DMEM) was added to wells and incubated for 30 min followed by examination of live cells using fluorescence cell imaging (Spark Cyto cell imager, Tecan).

Row | oxidation potential [1] | H2O2 concentration at which polymerization by HRP got saturated [3] | concentration of H2O2 required for HRP mediated polymerization [3] | Structure (SMILES) | cell toxicity [2] | morphology in phase contrast images ([4]; 5-1000 μg/ml) | calcein-AM fluorescence vs control ([4]; even at 1000 μg/ml)
1 | 1.2 V | – | – | c1scc2c1OCCO2 [EDOT, 3,4-ethylenedioxythiophene] | – | – | –
2 | – | 0.002% | 0.001% | C[N+](C)(C)CCOP(=O)([O-])OCCc1cc(-c2scc3c2OCCO3)sc1-c1scc2c1OCCO2 [ETE-PC] | neither A5 nor ETE-PC showed cell toxicity | No detrimental change in morphology of HLF-1 cells was observed | no change the calcein-AM fluorescence
3 | – | – | – | O=S(=O)(O)CCCCOCCc1cc(-c2scc3c2OCCO3)sc1-c1scc2c1OCCO2 [ETE-S, sodium 4-(2-(2,5-bis(2,3-dihydrothieno[3,4-b][1,4]dioxin-5-yl)thiophene-3-yl)ethoxy)butane-1-sulfonate] | some toxicity at high concentrations | – | –
